The source of these data is US12264156B2, “Compounds and pharmaceutical compositions thereof for the treatment of diseases” (GALAPAGOS NV, priority 2018, dated 2025).

Structures are written as SMILES.

For one experiment, the target named is T1, SIK3 (Homo sapiens, UniProt Q9Y2K2).
T1 construct: purchased SignalChem S12-11G-100
The experiment in a line: ADP-Glo kinase assay, SIK3. The class given is biochemical. To be noted: ADP-Glo SIK kinase assay. In outline: (§1)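 ADP-Glo, RT throughout. Enz/substrate + ATP, 120 min; ADP-Glo reagent 40 min (ATP depletion); detection reagent 30 min; luminescence read. Neg ctrl 1% DMSO, pos ctrl 10 μM staurosporine, final concs.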

The next experiment has as its target T2, SIK2 (Homo sapiens, UniProt Q9H0K1).
T2 construct: purchased ThermoFisher Scientific PV4792
Description: ADP-Glo kinase assay, SIK2. It counts as biochemical. To be noted: ADP-Glo SIK kinase assay. The method in brief:
as §1

The subject of experiment [1] is LPS-induced TNFα in monocyte-derived macrophages (MdM). Description: MdM assay: LPS-triggered TNFα (ELISA). The class given is cell-based, human. To be noted: Homo sapiens, Macrophage, 20 h, monocyte-derived macrophages, LPS 200 ng/mL, supernatant after 20 h; read-out: TNFα EC50. In outline: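 Human monocyte-derived macrophages from CD14+ bead-selected buffy-coat PBMCs, used on day 10, pre-treated with compound for 1 h at 37 °C (0.2% DMSO), then stimulated with 200 ng/mL LPS. Supernatant taken after 20 h for TNFα sandwich ELISA (IL-10 at 2 h).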

T2 sequence (Q9H0K1 whole entry): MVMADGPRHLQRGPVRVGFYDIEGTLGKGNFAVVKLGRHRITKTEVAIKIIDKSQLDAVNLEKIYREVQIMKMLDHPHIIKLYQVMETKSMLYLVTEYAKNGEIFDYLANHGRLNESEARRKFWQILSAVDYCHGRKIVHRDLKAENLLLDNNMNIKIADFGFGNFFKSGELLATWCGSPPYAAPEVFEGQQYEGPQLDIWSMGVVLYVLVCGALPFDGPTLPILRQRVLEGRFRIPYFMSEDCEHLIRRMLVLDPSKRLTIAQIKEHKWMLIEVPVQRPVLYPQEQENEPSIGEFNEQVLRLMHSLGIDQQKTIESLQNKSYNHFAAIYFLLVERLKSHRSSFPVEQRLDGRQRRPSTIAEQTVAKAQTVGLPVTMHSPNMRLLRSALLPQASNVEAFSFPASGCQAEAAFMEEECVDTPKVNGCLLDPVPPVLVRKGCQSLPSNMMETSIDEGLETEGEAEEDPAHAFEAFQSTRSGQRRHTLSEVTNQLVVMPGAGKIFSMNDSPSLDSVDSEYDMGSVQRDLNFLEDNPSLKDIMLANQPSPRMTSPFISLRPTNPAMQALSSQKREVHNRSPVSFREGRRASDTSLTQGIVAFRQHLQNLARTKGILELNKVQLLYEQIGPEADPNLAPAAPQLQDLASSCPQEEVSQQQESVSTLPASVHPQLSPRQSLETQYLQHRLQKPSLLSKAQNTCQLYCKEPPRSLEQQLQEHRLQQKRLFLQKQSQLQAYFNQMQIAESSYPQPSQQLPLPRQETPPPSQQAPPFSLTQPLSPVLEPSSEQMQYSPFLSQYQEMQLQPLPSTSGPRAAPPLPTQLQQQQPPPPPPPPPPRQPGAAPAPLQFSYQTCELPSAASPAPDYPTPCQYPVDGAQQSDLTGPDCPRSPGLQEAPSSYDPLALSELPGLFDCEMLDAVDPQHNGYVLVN
T1 sequence (Q9Y2K2 whole entry): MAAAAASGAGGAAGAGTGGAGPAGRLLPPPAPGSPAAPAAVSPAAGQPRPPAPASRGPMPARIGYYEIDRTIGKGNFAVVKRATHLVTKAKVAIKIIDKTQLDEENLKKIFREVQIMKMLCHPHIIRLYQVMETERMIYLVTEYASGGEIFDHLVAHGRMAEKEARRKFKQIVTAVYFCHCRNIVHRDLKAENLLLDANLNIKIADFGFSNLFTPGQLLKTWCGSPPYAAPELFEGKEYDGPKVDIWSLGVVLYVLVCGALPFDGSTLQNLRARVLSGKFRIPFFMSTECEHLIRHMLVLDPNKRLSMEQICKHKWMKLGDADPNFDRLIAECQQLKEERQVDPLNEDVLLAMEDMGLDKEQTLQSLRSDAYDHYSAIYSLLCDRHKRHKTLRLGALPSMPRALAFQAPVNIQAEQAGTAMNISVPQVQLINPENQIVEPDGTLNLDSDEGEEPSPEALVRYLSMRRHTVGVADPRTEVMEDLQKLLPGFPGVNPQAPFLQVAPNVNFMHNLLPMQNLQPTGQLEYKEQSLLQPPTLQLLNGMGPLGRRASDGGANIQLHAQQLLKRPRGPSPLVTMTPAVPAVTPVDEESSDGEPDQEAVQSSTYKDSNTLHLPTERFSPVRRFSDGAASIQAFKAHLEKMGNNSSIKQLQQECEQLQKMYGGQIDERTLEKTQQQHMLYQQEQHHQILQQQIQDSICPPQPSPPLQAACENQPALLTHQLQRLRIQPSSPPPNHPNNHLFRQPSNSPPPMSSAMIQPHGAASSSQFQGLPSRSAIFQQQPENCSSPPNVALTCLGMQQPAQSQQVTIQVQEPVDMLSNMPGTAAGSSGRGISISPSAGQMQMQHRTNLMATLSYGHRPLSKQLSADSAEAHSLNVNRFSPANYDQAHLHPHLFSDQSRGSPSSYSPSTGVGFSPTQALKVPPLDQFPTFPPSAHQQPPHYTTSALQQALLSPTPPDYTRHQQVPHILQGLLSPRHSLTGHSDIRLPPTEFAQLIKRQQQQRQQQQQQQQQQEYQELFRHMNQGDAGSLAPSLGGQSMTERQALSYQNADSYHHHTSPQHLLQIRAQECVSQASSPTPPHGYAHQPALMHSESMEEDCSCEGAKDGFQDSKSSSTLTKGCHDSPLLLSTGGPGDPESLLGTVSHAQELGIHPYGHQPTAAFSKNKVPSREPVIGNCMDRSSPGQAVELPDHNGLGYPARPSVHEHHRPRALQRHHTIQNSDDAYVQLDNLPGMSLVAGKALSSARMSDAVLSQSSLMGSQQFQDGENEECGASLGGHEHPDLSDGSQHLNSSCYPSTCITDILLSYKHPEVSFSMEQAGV

With `COc1cc(-c2cnc3cc(OCC(O)CN4CCCCC4)ccn23)cc(OC(F)F)c1C(=O)NC1CC1` (stereo not drawn) [Cpd 321, N-cyclopropyl-2-(difluoromethoxy)-4-[7-[2-hydroxy-3-(1-piperidyl)propoxy]imidazo [1,2-a]pyridin-3-yl]-6-methoxy-benzamide], the IC50 on SIK3 and on SIK2 was 0.01 to 10 nM throughout. For the same molecule, the EC50 in experiment [1] fell in the range of 0.1 to 100 nM.

As to `COc1cc(-c2cnc3cc(OCC4(F)CN(C)C4)ccn23)cc2c1C(=O)N(CC(F)(F)F)CC2` [compound 252, 6-[7-[(3-fluoro-1-methyl-azetidin-3-yl)methoxy]imidazo[1,2-a]pyridin-3-yl]-8-methoxy-2-(2,2,2-trifluoroethyl)-3,4-dihydro isoquinolin-1-one], the IC50 at SIK3 and at SIK2 was 0.01 to 10 nM throughout. The EC50 in experiment [1] was in the range of 100 to 1000 nM.

Turning to `COc1cc(-c2cnc3cc(OCCCN4CCCC(O)C4)ccn23)cc(OC(F)F)c1C(=O)NC1CC1` (stereo not drawn) [compound 328, N-cyclopropyl-2-(difluoromethoxy)-4-[7-[3-(3-hydroxy-1-piperidyl)propoxy]imidazo [1,2-a]pyridin-3-yl]-6-methoxy-benzamide], the IC50 on SIK3 and on SIK2 was 0.01 to 10 nM throughout. Also, in experiment [1], the EC50 lay in the range of 0.1 to 100 nM.

On to `COc1cc(-c2cnc3cc(OCCN4CCOC[C@H]4C)ccn23)cc2c1C(=O)N(CC(F)(F)F)CC2` [compound 259, 8-methoxy-6-[7-[2-[(3R)-3-methylmorpholin-4-yl]ethoxy]imidazo[1,2-a]pyridin-3-yl]-2-(2,2,2-trifluoroethyl)-3,4-dihydroisoquinolin-1-one], for which the IC50 against SIK3 and against SIK2 was 10 to 100 nM throughout. Also, in experiment [1], the EC50 fell in the range of 100 to 1000 nM.

With `COc1cc(-c2cnc3cc(OCCN4CCOC[C@@H]4C)ccn23)cc2c1C(=O)N(CC(F)(F)F)CC2` [Cpd 257, 8-methoxy-6-[7-[2-[(3S)-3-methylmorpholin-4-yl]ethoxy]imidazo[1,2-a]pyridin-3-yl]-2-(2,2,2-trifluoroethyl)-3,4-dihydroisoquinolin-1-one], the concentration for half-maximal inhibition (IC50) on SIK3 lay in the range of 0.01 to 10 nM; at SIK2, 10 to 100 nM. For the same molecule, in experiment [1], the EC50 is 100 to 1000 nM.

With `COc1cc(-c2cnc3cc(OCCN(C)C)ccn23)cc(OC(F)F)c1C(=O)NC1CC1` [Cpd 6, N-cyclopropyl-2-(difluoromethoxy)-4-[7-[2-(dimethylamino)ethoxy]imidazo[1,2-a]pyridin-3-yl]-6-methoxy-benzamide], the IC50 on SIK3 and against SIK2 was 0.01 to 10 nM in each case. In addition, in experiment [1], the EC50 fell in the range of 100 to 1000 nM.

Regarding `COc1cc(-c2cnc3cc(OCc4ccnn4C)ccn23)cc(OC(F)F)c1C(=O)NC1CC1` [compound 44, N-cyclopropyl-2-(difluoromethoxy)-6-methoxy-4-[7-[(2-methylpyrazol-3-yl)methoxy]imidazo[1,2-a]pyridin-3-yl] benzamide], the IC50 against SIK3 and against SIK2 was 0.01 to 10 nM in each case. The EC50 in experiment [1] lay within 100 to 1000 nM.

As for `COc1cc(-c2cnc3cc(OCC4(C)CN(C)C4)ccn23)cc(OC(F)F)c1C(=O)NC1CC1` [compound 220, N-cyclopropyl-2-(difluoromethoxy)-4-[7-[(1,3-dimethylazetidin-3-yl)methoxy]imidazo[1,2-a]pyridin-3-yl]-6-methoxy-benzamide], the IC50 against SIK3 and against SIK2 was 0.01 to 10 nM throughout. In addition, the EC50 in experiment [1] lay within 100 to 1000 nM.

Take `COc1cc(-c2cnc3cc(OC[C@@H]4COCCO4)ccn23)cc2c1C(=O)N(CC(F)(F)F)CC2` [compound 225, 6-[7-[[(2S)-1,4-dioxan-2-yl]methoxy]imidazo[1,2-a]pyridin-3-yl]-8-methoxy-2-(2,2,2-trifluoroethyl)-3,4-dihydroisoquinolin-1-one]: the IC50 at SIK3 and at SIK2 was 0.01 to 10 nM each time. Moreover, in experiment [1], the EC50 was in the range of 100 to 1000 nM.

`COc1cc(-c2cnc3cc(OCC4CCO4)ccn23)cc2c1C(=O)N(CC(F)(F)F)CC2` (stereo not drawn) [compound 125, 8-methoxy-6-[7-(oxetan-2-ylmethoxy)imidazo[1,2-a]pyridin-3-yl]-2-(2,2,2-trifluoroethyl)-3,4-dihydroisoquinolin-1-one]: the IC50 against SIK3 and against SIK2 was 0.01 to 10 nM in each case. In addition, in experiment [1], the EC50 was 100 to 1000 nM.

Regarding `COc1cc(-c2cnc3cc(OC[C@H]4CN(C)CCO4)ccn23)cc2c1C(=O)N(CC(F)(F)F)CC2` [compound 190, 8-methoxy-6-[7-[[(2R)-4-methylmorpholin-2-yl]methoxy]imidazo[1,2-a]pyridin-3-yl]-2-(2,2,2-trifluoroethyl)-3,4-dihydro isoquinolin-1-one], the IC50 against SIK3 and at SIK2 was 0.01 to 10 nM each time. In addition, the EC50 in experiment [1] was 100 to 1000 nM.

On to `COc1cc(-c2cnc3cc(OC(C)(C)CO)ccn23)cc(OC(F)F)c1C(=O)NC1CC1` [Cpd 209, N-cyclopropyl-2-(difluoromethoxy)-4-[7-(2-hydroxy-1,1-dimethyl-ethoxy)imidazo[1,2-a]pyridin-3-yl]-6-methoxy-benzamide], for which the IC50 at SIK3 is 10 to 100 nM; at SIK2, greater than 500 nM. In addition, the concentration giving a half-maximal response (EC50) in experiment [1] lay within 1000 to 5000 nM.

With `COc1cc(-c2cnc3cc(OCCCN4CC5(COC5)C4)ccn23)cc(OC(F)F)c1C(=O)NC1CC1` [compound 273, N-cyclopropyl-2-(difluoromethoxy)-6-methoxy-4-[7-[3-(2-oxa-6-azaspiro[3.3]heptan-6-yl)propoxy]imidazo[1,2-a]pyridin-3-yl]benzamide], the IC50 at SIK3 and on SIK2 was 0.01 to 10 nM throughout. Besides, the EC50 in experiment [1] lay within 100 to 1000 nM.

For the molecule `COc1cc(-c2cnc3cc(OCCN(C)C)ccn23)cc2c1C(=O)N(CC(F)(F)F)CC2` [Cpd 18, 6-[7-[2-(dimethylamino)ethoxy]imidazo[1,2-a]pyridin-3-yl]-8-methoxy-2-(2,2,2-trifluoroethyl)-3,4-dihydroisoquinolin-1-one], the IC50 lay within 10 to 100 nM on SIK3 and 0.01 to 10 nM against SIK2. Further, the EC50 in experiment [1] is 100 to 1000 nM.

As for `COc1cc(-c2cnc3cc(OCCN(C)C)ccn23)cc2c1C(=O)N(CC(F)F)CC2` [compound 54, 2-(2,2-difluoroethyl)-6-[7-[2-(dimethylamino)ethoxy]imidazo [1,2-a]pyridin-3-yl]-8-methoxy-3,4-dihydro isoquinolin-1-one], the IC50 against SIK3 lay in the range of 10 to 100 nM; against SIK2 it was 0.01 to 10 nM. Moreover, the EC50 in experiment [1] fell in the range of 100 to 1000 nM.

In the case of `COc1cc(-c2cnc3cc(OCCN4CCOCC4)ccn23)cc2c1C(=O)N(CC(F)F)CC2` [compound 218, 2-(2,2-difluoroethyl)-8-methoxy-6-[7-(2-morpholinoethoxy)imidazo [1,2-a]pyridin-3-yl]-3,4-dihydroisoquinolin-1-one], the IC50 on SIK3 and against SIK2 was 0.01 to 10 nM in each case. In addition, in experiment [1], the EC50 lay in the range of 100 to 1000 nM.

`COc1cc(-c2cnc3cc(OC[C@H]4COCCO4)ccn23)cc2c1C(=O)N(CC(F)(F)F)CC2` [Cpd 86, 6-[7-[[(2R)-1,4-dioxan-2-yl]methoxy]imidazo[1,2-a]pyridin-3-yl]-8-methoxy-2-(2,2,2-trifluoroethyl)-3,4-dihydroisoquinolin-1-one]: the IC50 at SIK3 lay in the range of 0.01 to 10 nM; on SIK2, 10 to 100 nM. Moreover, in experiment [1], the EC50 lay in the range of 100 to 1000 nM.
